For 17 compounds, IC50 results are on record in patent US20250179073A1, “TRICYCLIC HETEROCYCLE COMPOUNDS AS IAP ANTAGONISTS” (Ascentage Pharma (Suzhou) Co., Ltd., priority 2022, published 2025).

One assay relates to EVSA-T cells. Put plainly: Cell proliferation assay (CellTiter-Glo), EVSA-T. The format is cell-based. To be noted: Homo sapiens, EVSA-T, 72 h, 72 h treatment, Celltiter-Glo luminescence. Summed up: (§1)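 MDA-MB-231 (RPMI-1640/10% FBS) and EVSA-T (MEM/10% FBS) cells, 10000 cells/well, exposed 72 h to compound at […]. Viability read by CellTiter-Glo luminescence after 15 min at room temperature. IC50 from control-normalised curve fitting.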
Background: In ATP-based viability assays light output follows the ATP content of the culture.

The test system of the next assay is MDA-MB-231 cells. Put plainly: Cell proliferation assay (CellTiter-Glo), MDA-MB-231. Type of assay: cell-based. Conditions: Homo sapiens, MDA-MB-231, 72 h, 72 h treatment, Celltiter-Glo luminescence. Summed up: as §1

For the compound `C[C@@H]1CN(CC(=O)N2CC(C)(C)c3c2cc(Cc2ccc(F)cc2)c2nn([C@@H]4CCOC4)c(=O)n32)[C@@H](CN2CCOC[C@H]2C)CN1` [Compound 228, 4-(4-fluorobenzyl)-8,8-dimethyl-6-(2-((2R,5R)-5-methyl-2-(((R)-3-methylmorpholino)methyl)piperazin-1-yl)acetyl)-2-((R)-tetrahydrofuran-3-yl)-2,6,7,8-tetrahydro-1H-pyrrolo[2,3-e][1,2,4]triazolo[4,3-a]pyridin-1-one], the IC50 in the assay on EVSA-T cells came out at 2 nM; in the assay with MDA-MB-231 cells, 9 nM.

Regarding `C[C@@H]1CN(CC(=O)N2CC(C)(C)c3c2cc(Cc2ccc(F)cc2)c2nc(N4C[C@@H](O)[C@@H](O)C4)nn32)[C@@H](CN2CCOC[C@H]2C)CN1` [Compound 229, 1-(2-((3R,4S)-3,4-dihydroxypyrrolidin-1-yl)-4-(4-fluorobenzyl)-8,8-dimethyl-7,8-dihydro-6H-pyrrolo[2,3-e][1,2,4]triazolo[1,5-a]pyridin-6-yl)-2-((2R,5R)-5-methyl-2-(((R)-3-methylmorpholino)methyl)piperazin-1-yl)ethan-1-one], the figures for the IC50 with EVSA-T cells and with MDA-MB-231 cells were 7 nM and 76 nM, respectively.

For `C[C@@H]1CN(CC(=O)N2CC(C)(C)c3c2cc(Cc2ccc(F)cc2)c2nn(-c4ncccn4)c(=O)n32)[C@@H](CN2CCOC[C@H]2C)CN1` [Compound 230, 4-(4-fluorobenzyl)-8,8-dimethyl-6-(2-((2R,5R)-5-methyl-2-(((R)-3-methylmorpholino)methyl)piperazin-1-yl)acetyl)-2-(pyrimidin-2-yl)-2,6,7,8-tetrahydro-1H-pyrrolo[2,3-e][1,2,4]triazolo[4,3-a]pyridin-1-one], the IC50 with EVSA-T cells worked out at 8 nM; in the assay with MDA-MB-231 cells, 38 nM.

As for `C[C@@H]1CN(CC(=O)N2CC(C)(C)c3c2cc(Cc2ccc(F)cc2)c2nn(CC(C)(C)O)c(=O)n32)[C@@H](CN2CCOC[C@H]2C)CN1` [Compound 231, 4-(4-fluorobenzyl)-2-(2-hydroxy-2-methylpropyl)-8,8-dim ethyl-6-(2-((2R,5R)-5-methyl-2-(((R)-3-methylmorpholino)methyl)piperazin-1-yl)acetyl)-2,6,7,8-tetrahydro-1H-pyrrolo[2,3-e][1,2,4]triazolo[4,3-a]pyridin-1-one], the IC50 in the assay on EVSA-T cells is 4 nM; in the assay on MDA-MB-231 cells, 28 nM.

Turning to `COC(=O)Nc1nc2c(Cc3ccc(F)cc3)cc3c(n2n1)C(C)(C)CN3C(=O)CN1C[C@@H](C)NC[C@@H]1CN1CCOC[C@H]1C` [Compound 234, methyl (4-(4-fluorobenzyl)-8,8-dimethyl-6-(2-((2R,5R)-5-methyl-2-(((R)-3-methylmorpholino)methyl)piperazin-1-yl)acetyl)-7,8-dihydro-6H-pyrrolo[2,3-e][1,2,4]triazolo[1,5-a]pyridin-2-yl)carbamate], the values for the IC50 in the assay on EVSA-T cells and with MDA-MB-231 cells were 0.7 nM and 10 nM, respectively.

For the compound `C[C@@H]1CN(CC(=O)N2CC(C)(C)c3c2cc(Cc2ccc(F)cc2)c2nc(N4CCN(C)C4=O)nn32)[C@@H](CN2CCOC[C@H]2C)CN1` [Compound 235, 1-(4-(4-fluorobenzyl)-8,8-dimethyl-6-(2-((2R,5R)-5-methyl-2-(((R)-3-methylmorpholino)methyl)piperazin-1-yl)acetyl)-7,8-dihydro-6H-pyrrolo[2,3-e][1,2,4]triazolo[1,5-a]pyridin-2-yl)-3-methylimidazolidin-2-one], the IC50 with EVSA-T cells stood at 1.3 nM; in the assay with MDA-MB-231 cells, 38 nM.

Regarding `C[C@@H]1CN(CC(=O)N2CC(C)(C)c3c2cc(Cc2ccc(F)cc2)c2nn(Cc4cncnc4)c(=O)n32)[C@@H](CN2CCOC[C@H]2C)CN1` [Compound 236, 4-(4-fluorobenzyl)-8,8-dimethyl-6-(2-((2R,5R)-5-methyl-2-(((R)-3-methylmorpholino)methyl)piperazin-1-yl)acetyl)-2-(pyrimidin-5-ylmethyl)-2,6,7,8-tetrahydro-1H-pyrrolo[2,3-e][1,2,4]triazolo[4,3-a]pyridin-1-one], the IC50 in the assay with EVSA-T cells came out at 0.7 nM; with MDA-MB-231 cells, 87 nM.

With `C[C@@H]1CN(CC(=O)N2CC(C)(C)c3c2cc(Cc2ccc(F)cc2)c2nn(C[C@H]4COCCO4)c(=O)n32)[C@@H](CN2CCOC[C@H]2C)CN1` [Compound 237, 2-(((S)-1,4-dioxan-2-yl)methyl)-4-(4-fluorobenzyl)-8,8-dim ethyl-6-(2-((2R,5R)-5-methyl-2-(((R)-3-methylmorpholino)methyl)piperazin-1-yl)acetyl)-2,6,7,8-tetrahydro-1H-pyrrolo[2,3-e][1,2,4]triazolo[4,3-a]pyridin-1-one], the results for the IC50 in the assay with EVSA-T cells and with MDA-MB-231 cells were 1.5 nM and 46 nM, respectively.

On to `CC(=O)N(C)c1nc2c(Cc3ccc(F)cc3)cc3c(n2n1)C(C)(C)CN3C(=O)CN1C[C@@H](C)NC[C@@H]1CN1CCOC[C@H]1C` [Compound 238, N-(4-(4-fluorobenzyl)-8,8-dimethyl-6-(2-((2R,5R)-5-methy 1-2-(((R)-3-methylmorpholino)methyl)piperazin-1-yl)acetyl)-7,8-dihydro-6H-pyrrolo[2,3-e][1,2,4]triazolo[1,5-a]pyridin-2-yl)-N-methylacetamide], for which the IC50 with EVSA-T cells came out at 1.3 nM; in the assay on MDA-MB-231 cells it was 31 nM.

On to `C[C@@H]1CN(CC(=O)N2CC(C)(C)c3c2cc(Cc2ccc(F)cc2)c2nc(NC=O)nn32)[C@@H](CN2CCOC[C@H]2C)CN1` [Compound 239, N-(4-(4-fluorobenzyl)-8,8-dimethyl-6-(2-((2R,5R)-5-methyl-2-(((R)-3-methylmorpholino)methyl)piperazin-1-yl)acetyl)-7,8-dihydro-6H-pyrrolo[2,3-e][1,2,4]triazolo[1,5-a]pyridin-2-yl)formamide], for which the IC50 with EVSA-T cells amounted to 0.5 nM; with MDA-MB-231 cells, 14 nM.

For `C[C@@H]1CN(CC(=O)N2CC(C)(C)c3c2cc(Cc2ccc(F)cc2)c2nn(CC4(O)CC4)c(=O)n32)[C@@H](CN2CCOC[C@H]2C)CN1` [Compound 240, 4-(4-fluorobenzyl)-2-((1-hydroxycyclopropyl)methyl)-8,8-dimethyl-6-(2-((2R,5R)-5-methyl-2-(((R)-3-methylmorpholino)methyl)piperazin-1-yl)acetyl)-2,6,7,8-tetrahydro-1H-pyrrolo[2,3-e][1,2,4]triazolo[4,3-a]pyridin-1-one], the IC50 came out at 5.9 nM in the assay with EVSA-T cells and 25 nM in the assay with MDA-MB-231 cells.

In the case of `C[C@@H]1CN(CC(=O)N2CC(C)(C)c3c2cc(Cc2ccc(F)cc2)c2nc(N(C)C=O)nn32)[C@@H](CN2CCOC[C@H]2C)CN1` [Compound 241, N-(4-(4-fluorobenzyl)-8,8-dimethyl-6-(2-((2R,5R)-5-methy 1-2-(((R)-3-methylmorpholino)methyl)piperazin-1-yl)acetyl)-7,8-dihydro-6H-pyrrolo[2,3-e][1,2,4]triazolo[1,5-a]pyridin-2-yl)-N-methylformamide], the IC50 came to 6.3 nM in the assay with EVSA-T cells and 15 nM in the assay on MDA-MB-231 cells.

`C[C@@H]1CN(CC(=O)N2CC(C)(C)c3c2cc(Cc2ccc(F)cc2)c2nn(CC(F)(F)CO)c(=O)n32)[C@@H](CN2CCOC[C@H]2C)CN1` [Compound 242, 2-(2,2-difluoro-3-hydroxypropyl)-4-(4-fluorobenzyl)-8,8-dimethyl-6-(2-((2R,5R)-5-methyl-2-(((R)-3-methylmorpholino)methyl)piperazin-1-yl)acetyl)-2,6,7,8-tetrahydro-1H-pyrrolo[2,3-e][1,2,4]triazolo[4,3-a]pyridin-1-one]: the IC50 in the assay with EVSA-T cells turned out to be 2.7 nM; in the assay on MDA-MB-231 cells, 18 nM.

In the case of `C[C@@H]1CN(CC(=O)N2CC(C)(C)c3c2cc(Cc2ccc(F)cc2)c2nn(CCN(C)C)c(=O)n32)[C@@H](CN2CCOC[C@H]2C)CN1` [Compound 243, 2-(2-(dimethylamino)ethyl)-4-(4-fluorobenzyl)-8,8-dimethyl-6-(2-((2R,5R)-5-methyl-2-(((R)-3-methylmorpholino)methyl)piperazin-1-yl)acetyl)-2,6,7,8-tetrahydro-1H-pyrrolo[2,3-e][1,2,4]triazolo[4,3-a]pyridin-1-one], the figures for the IC50 in the assay with EVSA-T cells and in the assay on MDA-MB-231 cells were 14.5 nM and 95 nM, respectively.

`C[C@@H]1CN(CC(=O)N2CC(C)(C)c3c2cc(Cc2ccc(F)cc2)c2nc(C4(O)CC4)nn32)[C@@H](CN2CCOC[C@H]2C)CN1` [Compound 244, 1-(4-(4-fluorobenzyl)-2-(1-hydroxycyclopropyl)-8,8-dimethyl-7,8-dihydro-6H-pyrrolo[2,3-e][1,2,4]triazolo[1,5-a]pyridin-6-yl)-2-((2R,5R)-5-methyl-2-(((R)-3-methylmorpholino)methyl)piperazin-1-yl)ethan-1-one]: the IC50 in the assay on EVSA-T cells is 4.6 nM; in the assay on MDA-MB-231 cells, 3 nM.

As to `C[C@@H]1CN(CC(=O)N2CC(C)(C)c3c2cc(Cc2ccc(F)cc2)c2nn(Cc4cccnc4)c(=O)n32)[C@@H](CN2CCOC[C@H]2C)CN1` [Compound 245, 4-(4-fluorobenzyl)-8,8-dimethyl-6-(2-((2R,5R)-5-methyl-2-(((R)-3-methylmorpholino)methyl)piperazin-1-yl)acetyl)-2-(pyridin-3-ylmethyl)-2,6,7,8-tetrahydro-1H-pyrrolo[2,3-e][1,2,4]triazolo[4,3-a]pyridin-1-one], the IC50 was 6.2 nM in the assay on EVSA-T cells and 5 nM in the assay with MDA-MB-231 cells.

As for `C[C@@H]1CN(CC(=O)N2CC(C)(C)c3c2cc(Cc2ccc(F)cc2)c2nn(Cc4ccncn4)c(=O)n32)[C@@H](CN2CCOC[C@H]2C)CN1` [Compound 246, 4-(4-fluorobenzyl)-8,8-dimethyl-6-(2-((2R,5R)-5-methyl-2-(((R)-3-methylmorpholino)methyl)piperazin-1-yl)acetyl)-2-(pyrimidin-4-ylmethyl)-2,6,7,8-tetrahydro-1H-pyrrolo[2,3-e][1,2,4]triazolo[4,3-a]pyridin-1-one], the IC50 in the assay on EVSA-T cells was found to be 3.5 nM; in the assay with MDA-MB-231 cells, 4 nM.

One may read the IC50 as the concentration that inhibits the measured activity by half.
